Data published in patent publication US5905089A, “Use of sesquiterpene lactones for treatment of severe inflammatory disorders” (Board of Supervisors of Louisiana State University and …, priority 1998, dated 1999).

Key:
COX-2 [1] = experiment: COX-2 expression in LPS-stimulated RAW 264.7 cells (Western blot); assay type: cell-based, murine; conditions: LPS 1 μg/ml; FIG. 5D
Protocol: (§1) Rat (Sprague-Dawley) alveolar macrophages were collected by broncho-alveolar lavage as described by Lee et al., J. Biol. Chem., vol. 267, pp. 25934-25938 (1992). The murine macrophage cell line RAW 264.7 (ATCC no. TIB-71) was cultured in Dubecco's modified Eagle's medium (DMEM) containing 10% heat-inactivated fetal bovine serum (FBS, Intergen). For the cyclooxygenase activity assay, cells were seeded in 24 well plates, and after near-confluency, cells were treated with aspirin (250 μM) for 2.5h to inactivate endogenous cyclooxygenase. […] COX activity was determined by measuring prostaglandin E2 concentrations in cells incubated with arachidonic acid (30 μM) for 10 minutes as described in Lee et al. (1992).
(§2) The protein levels of COX-2 and GAPDH were assessed by Western blot analysis using polyclonal antibodies as described in Lee et al. (1992). Polyclonal antibodies for IL-1α and JNK-1 were purchased from Genzyme and Santa Cruz Biotech, respectively.
(§3) Parthenolide suppressed LPS-stimulated tyrosine phosphorylation of various proteins in RAW 264.7 cells as assessed by antiphosphotyrosine immunoblot, depicted in FIG. 5A. This inhibition was correlated with the suppressed expression of COX-2 and IL-1α. RAW 264.7 cells were pretreated with parthenolide in various concentrations or with herbimycin A (0.5 μg/ml) for 3h, and then stimulated with LPS (1 μg/ml) in the presence of the inhibitors for 30 min. […] Therefore, the extent of tyrosine phosphorylation of JNK-1 was assessed by the electrophoretic mobility shift of phosphorylated JNK-1 as shown in FIG. 5B. Parthenolide inhibited tyrosine phosphorylation of JNK-1. Another protein tyrosine kinase inhibitor, herbimycin A ([…]), inhibited tyrosine phosphorylation of the MAPK subfamily.
(§4) The mechanism by which parthenolide inhibits protein tyrosine phosphorylation is not currently known. It has been speculated that the tyrosine kinase inhibitor herbimycin A inactivates p60^v-src kinase by irreversibly binding to the sulphydryl (SH) groups of p60^v-src kinase. Y. Uehara et al., Biochem. Biophys. Res. Commun., vol. 163, pp. 803-809 (1989). The inactivation by herbimycin may occur through conjugation between highly polarized double bonds in the benzoquinone moiety of herbimycin A and the SH group of sulphydryl compounds. Without wishing to be bound by this theory, the α-methylenebutyrolactone in parthenolide may interact with biological nucleophiles such as sulphydryl groups. Indeed, pretreating cells with sulphydryl compounds abrogated the inhibitory effect of parthenolide on LPS-induced activation of MAPKs as shown in FIG. 6A. […]

IL-1α = IL-1α expression in LPS-stimulated RAW 264.7 cells (Western blot); assay type: cell-based, murine; conditions: LPS 1 μg/ml; FIG. 5D
Protocol: as §1, §2, §3, §4

P38 = experiment: Tyrosine phosphorylation of P38 in RAW 264.7 cells (antiphosphotyrosine immunoblot); assay type: cell-based, murine; conditions: 3h pretreatment, LPS 1 μg/ml 30 min; FIG. 5A
Protocol: as §1
(§5) This detection technique was carried out essentially as described in Chanmugan et al. (1995) using 4G10 monoclonal antiphosphotyrosine antibody (UBI) and the ECL detection system (Amersham).
(§6) Parthenolide suppressed LPS-stimulated tyrosine phosphorylation of various proteins in RAW 264.7 cells as assessed by antiphosphotyrosine immunoblot, depicted in FIG. 5A. This inhibition was correlated with the suppressed expression of COX-2 and IL-1α. […] Therefore, the extent of tyrosine phosphorylation of JNK-1 was assessed by the electrophoretic mobility shift of phosphorylated JNK-1 as shown in FIG. 5B. […]

ERK-2 = experiment: Tyrosine phosphorylation of ERK-2 in RAW 264.7 cells (antiphosphotyrosine immunoblot); assay type: cell-based, murine; conditions: 3h pretreatment, LPS 1 μg/ml 30 min; FIG. 5A
Protocol: as §1, §5, §6

ERK-1 = experiment: Kinase activity of ERK-1 in RAW 264.7 cells (in-gel kinase assay, MBP substrate); assay type: cell-based, murine; conditions: 3h pretreatment, LPS 1 μg/ml 30 min; FIG. 5
Protocol: as §1
This assay was performed according to the method described by Kameshita et al., Anal. Biochem., vol. 183, pp. 139-143 (1989) using myelin basic protein (MBP) as a substrate.
as §6

COX-2 [2] = experiment: COX-2 protein expression in LPS-stimulated alveolar macrophages (immunoblot); assay type: cell-based, Rat (Sprague-Dawley); conditions: 16h, FIG. 3A
Protocol: as §1, §2
In FIG. 3A, alveolar macrophages were incubated with LPS and various concentrations of parthenolide for 16h. Solubilized proteins were analyzed by COX-2, IL-1α or GAPDH immunoblotting. FIG. 3A is a representative immunoblot of more than five different analyses. Data are shown for various concentrations of both parthenolide (PTN) and herbimycin A (HER). […]

TNFα = experiment: LPS-induced TNFα production in alveolar macrophages (bioassay using L929 cells); assay type: cell-based, Rat (Sprague-Dawley); conditions: LPS 10 μg/ml, 16h, FIG. 2
Protocol: as §1
(§7) Recovered COX activity in cells pretreated with aspirin reflected de novo synthesized COX-2. Alveolar macrophages pretreated with aspirin were incubated with LPS (10 μg/ml) and various concentrations of parthenolide for 16h. The activity of de novo synthesized COX-2 was determined by measuring the levels of PGE2 produced from exogenous arachidonic acid. Activity of TNFα was determined by bioassay using L929 cells as described by Aggarwal et al., J. Biol. Chem., vol. 260, pp. 2345-2354 (1985). […] Values in FIG. 2 are the means of triplicate samples for TNFα and duplicate samples for PGE2.

COX-2 [3] = experiment: Inhibition of the expression of COX-2 in LPS-stimulated macrophages (Table 1); assay type: cell-based
Protocol: Rat (Sprague-Dawley) alveolar macrophages were collected by broncho-alveolar lavage as described by Lee et al., J. Biol. Chem., vol.
as §7, with “Alveolar” for “Recovered COX activity in cells pretreated with aspirin reflected de novo synthesized COX-2. Alveolar”, “vol.” for “vol. 260, pp. 2345-2354 (1985).”

IL-1β mRNA = experiment: Steady state levels of IL-1β mRNA in LPS-stimulated alveolar macrophages (RNase protection assay); assay type: cell-based, Rat (Sprague-Dawley); conditions: FIG. 3B (2h) and FIG. 4 (parthenolide 1 μg/ml, time course)
Protocol: as §1
Total cellular RNA was isolated by TRIzoL reagent (Gibco, BRL). The RNase protection assay was performed as described in Chanmugan et al. (1995).
In FIG. 3B, alveolar macrophages were incubated with LPS in the presence of various concentrations of parthenolide for 2h. Steady state levels of mRNA were determined by RNase protection assay. In FIG. 4, alveolar macrophages were incubated with LPS in presence of 1 μg/ml of parthenolide for specified time periods. The concentrations of mRNA were determined by RNase protection assay.

## C=C1C(=O)O[C@H]2[C@H]1CC/C(C)=C/CC[C@@]1(C)O[C@@H]21 [Compound 1, Parthenolide]
COX-2 [1]
  expression of COX-2 in RAW 264.7 cells: suppressed
IL-1α
  expression of IL-1α in RAW 264.7 cells: suppressed
P38
  tyrosine phosphorylation of P38: inhibited by parthenolide in a dose-dependent manner
ERK-2
  tyrosine phosphorylation of ERK-2: inhibited by parthenolide in a dose-dependent manner
ERK-1
  kinase activity of ERK-1: dose-dependent inhibition
COX-2 [2]
  expression of COX-2 protein: dose-dependent inhibition
TNFα
  IC50, suppression of LPS-induced TNFα production: 0.1 µg/mL
COX-2 [3]; IC50 determined at multiple dose levels
  IC50, inhibiting the expression of COX-2: 0.2 µg/mL
COX-2 [3]; comparison among tested compounds
  inhibitory activity (COX-2 expression), in words: highest inhibitory activity
IL-1β mRNA
  steady state levels of mRNA for IL-1β: inhibited
